From ChEMBL document CHEMBL4477257, “In vitro cytotoxicity of novel 2,5,7-tricarbo-substituted indoles derived from 2-amino-5-bromo-3-iodoacetophenone” (2016)
Active and inactive are the calls of the source. The rule behind the calls is not given here.

Tests used:
HeLa [1] = test: Cytotoxicity against human HeLa cells assessed as reduction in cell viability after 2 days by MTT assay; assay type: functional; conditions: 48 h, read-out: LC50 (the source's name)
MCF7 [2] = test: Cytotoxicity against human MCF7 cells assessed as reduction in cell viability after 2 days by MTT assay; assay type: functional; conditions: MCF7, 48 h, read-out: LC50 (the source's name)
MCF7 [3] = test: Cytotoxicity against human MCF7 cells assessed as cell viability at 1 uM after 2 days by MTT assay relative to control; assay type: functional; conditions: MCF7, 48 h, read-out: Activity
HeLa [4] = test: Cytotoxicity against human HeLa cells assessed as cell viability at 100 uM after 2 days by MTT assay relative to control; assay type: functional; conditions: 48 h, read-out: Activity
MCF7 [5] = test: Cytotoxicity against human MCF7 cells assessed as cell viability at 100 uM after 2 days by MTT assay relative to control; assay type: functional; conditions: MCF7, 48 h, read-out: Activity
HeLa [6] = test: Cytotoxicity against human HeLa cells assessed as cell viability at 10 uM after 2 days by MTT assay relative to control; assay type: functional; conditions: 48 h, read-out: Activity
MCF7 [7] = test: Cytotoxicity against human MCF7 cells assessed as cell viability at 10 uM after 2 days by MTT assay relative to control; assay type: functional; conditions: MCF7, 48 h, read-out: Activity
HeLa [8] = test: Cytotoxicity against human HeLa cells assessed as cell viability at 0.1 uM after 2 days by MTT assay relative to control; assay type: functional; conditions: 48 h, read-out: Activity
HeLa [9] = test: Cytotoxicity against human HeLa cells assessed as cell viability at 1 uM after 2 days by MTT assay relative to control; assay type: functional; conditions: 48 h, read-out: Activity
MCF7 [10] = test: Cytotoxicity against human MCF7 cells assessed as cell viability at 0.1 uM after 2 days by MTT assay relative to control; assay type: functional; conditions: MCF7, 48 h, read-out: Activity
HeLa [11] = test: Induction of apoptosis in human HeLa cells assessed as necrotic cells at 2.5 uM after 48 hrs by Annexin V/propidium iodide staining based flow cytometric analysis (reference value: 21.45 +/- 0.78 %); assay type: functional
HeLa [12] = test: Induction of apoptosis in human HeLa cells assessed as caspase 3 activation at 2.5 to 10 uM after 24 hrs by colorimetric analysis; assay type: functional
HeLa [13] = test: Induction of apoptosis in human HeLa cells assessed as DNA fragmentation at 2.5 to 10 uM after 48 hrs by ethidium bromide staining based agarose gel electrophoresis; assay type: functional, cell-based
HeLa [14] = test: Induction of apoptosis in human HeLa cells assessed as necrotic cells at 5 uM after 48 hrs by Annexin V/propidium iodide staining based flow cytometric analysis (reference value: 21.45 +/- 0.78 %); assay type: functional
HeLa [15] = test: Induction of apoptosis in human HeLa cells assessed as early apoptotic cells at 5 uM after 48 hrs by Annexin V/propidium iodide staining based flow cytometric analysis (reference value: 0.05 +/- 0.07 %); assay type: functional
HeLa [16] = test: Induction of apoptosis in human HeLa cells assessed as necrotic cells at 10 uM after 48 hrs by Annexin V/propidium iodide staining based flow cytometric analysis (reference value: 21.45 +/- 0.78 %); assay type: functional
HeLa [17] = test: Induction of apoptosis in human HeLa cells assessed as late apoptotic cells at 2.5 uM after 48 hrs by Annexin V/propidium iodide staining based flow cytometric analysis (reference value: 31.80 +/- 0.25 %); assay type: functional
HeLa [18] = test: Induction of apoptosis in human HeLa cells assessed as late apoptotic cells at 5 uM after 48 hrs by Annexin V/propidium iodide staining based flow cytometric analysis (reference value: 31.80 +/- 0.25 %); assay type: functional
HeLa [19] = test: Induction of apoptosis in human HeLa cells assessed as viable cells at 10 uM after 48 hrs by Annexin V/propidium iodide staining based flow cytometric analysis (reference value: 46.00 +/- 0.56 %); assay type: functional; conditions: read-out: Activity
HeLa [20] = test: Induction of apoptosis in human HeLa cells assessed as early apoptotic cells at 2.5 uM after 48 hrs by Annexin V/propidium iodide staining based flow cytometric analysis (reference value: 0.05 +/- 0.07 %); assay type: functional
HeLa [21] = test: Induction of apoptosis in human HeLa cells assessed as viable cells at 2.5 uM after 48 hrs by Annexin V/propidium iodide staining based flow cytometric analysis (reference value: 46.00 +/- 0.56 %); assay type: functional; conditions: read-out: Activity
HeLa [22] = test: Induction of apoptosis in human HeLa cells assessed as late apoptotic cells at 10 uM after 48 hrs by Annexin V/propidium iodide staining based flow cytometric analysis (reference value: 31.80 +/- 0.25 %); assay type: functional
HeLa [23] = test: Induction of apoptosis in human HeLa cells assessed as viable cells at 5 uM after 48 hrs by Annexin V/propidium iodide staining based flow cytometric analysis (reference value: 46.00 +/- 0.56 %); assay type: functional; conditions: read-out: Activity
HeLa [24] = test: Induction of apoptosis in human HeLa cells assessed as early apoptotic cells at 10 uM after 48 hrs by Annexin V/propidium iodide staining based flow cytometric analysis (reference value: 0.05 +/- 0.07 %); assay type: functional
HeLa [25] = test: Induction of apoptosis in human HeLa cells after 48 hrs by Annexin V/propidium iodide staining based flow cytometric analysis; assay type: functional, cell-based

SMILES	CC50 (HeLa [1]) [µM]	CC50 (MCF7 [2]) [µM]	viability at 1 µM (MCF7 [3]) [%]	viability at 100 µM (HeLa [4]) [%]	viability at 100 µM (MCF7 [5]) [%]	viability at 10 µM (HeLa [6]) [%]	viability at 10 µM (MCF7 [7]) [%]	viability at 0.1 µM (HeLa [8]) [%]	viability at 1 µM (HeLa [9]) [%]	viability at 0.1 µM (MCF7 [10]) [%]	other results
COc1ccc(-c2cc3cc(-c4ccc(F)cc4)cc(C(C)=O)c3[nH]2)cc1	42.8	> 100	96.4	46.5	47	52	77.5	81	62.9	97.3	
CC(=O)c1cc(/C=C/c2ccc(F)cc2)cc2cc(-c3ccccc3)[nH]c12	9.26	18.5	72.2	23.9	46.7	32.8	46.5	74.2	70	89.7	
COc1ccc(-c2cc(C(C)=O)c3[nH]c(-c4ccc(F)cc4)cc3c2)cc1	9.46	16.8	69.7	20.6	14.8	46.5	52.9	74.5	56.1	88.4	
CC(=O)c1cc(/C=C/c2ccccc2)cc2cc(-c3ccc(F)cc3)[nH]c12	16.1	> 100	86.9	24.2	50.1	51.9	69.5	82.2	60.5	98.4	
CC(=O)c1cc(-c2ccccc2)cc2cc(-c3ccccc3)[nH]c12	> 100	> 100	98.6	51.4	65.8	60.9	96.2	72.3	65.8	99.3	
CC(=O)c1cc(-c2ccc(F)cc2)cc2cc(-c3ccccc3)[nH]c12	38	> 100	82.7	24.8	36.4	55.7	73.8	90.3	82.7	98.3	
CC(=O)c1cc(-c2ccccc2)cc2cc(-c3ccc(F)cc3)[nH]c12	> 100	> 100	96.8	68.3	73.3	76.9	91.9	91.1	85.1	98.5	
CC(=O)c1cc(/C=C/c2ccc(F)cc2)cc2cc(-c3ccc(F)cc3)[nH]c12	5.68	> 100	82	20.3	42.2	41.9	67.4	72.6	53.7	98.8	Activity (HeLa [11]): 14.35%; fold change (FC) (HeLa [12]): 3; Activity (HeLa [13]): Active; Activity (HeLa [14]): 20.4%; Activity (HeLa [15]): 0.5%; Activity (HeLa [16]): 64.1%; Activity (HeLa [17]): 33.5%; Activity (HeLa [18]): 44%; viability at 10 µM (HeLa [19]): 22.4%; Activity (HeLa [20]): 0.2%; viability at 2.5 µM (HeLa [21]): 52.4%; Activity (HeLa [22]): 13.4%; viability at 5 µM (HeLa [23]): 35.5%; Activity (HeLa [24]): 0.35%
COc1ccc(-c2cc3cc(-c4ccccc4)cc(C(C)=O)c3[nH]2)cc1	18.9	> 100	78.1	32.8	43.5	51.6	64.5	80.5	61.5	87	
COc1ccc(-c2cc3cc(/C=C/c4ccc(F)cc4)cc(C(C)=O)c3[nH]2)cc1	8.77	83	97.3	18.9	47.6	25.8	76.5	90.5	67	97.2	
COc1ccc(-c2cc(C(C)=O)c3[nH]c(-c4ccc(OC)cc4)cc3c2)cc1	7.13	25.2	62.6	20.2	39.9	37.1	56.4	74.5	60.2	96.5	Activity (HeLa [11]): 23.2%; fold change (FC) (HeLa [12]): 4; Activity (HeLa [13]): Active; Activity (HeLa [14]): 42.65%; Activity (HeLa [15]): 0.15%; Activity (HeLa [16]): 47.4%; Activity (HeLa [17]): 12.9%; Activity (HeLa [18]): 37.55%; viability at 10 µM (HeLa [19]): 3.7%; Activity (HeLa [20]): 0.1%; viability at 2.5 µM (HeLa [21]): 65.2%; Activity (HeLa [25]): Dose-dependent effect; Activity (HeLa [22]): 47.75%; viability at 5 µM (HeLa [23]): 20.4%; Activity (HeLa [24]): 0.15%
COc1ccc(-c2cc(C(C)=O)c3[nH]c(-c4ccccc4)cc3c2)cc1	15.5	47.8	88.8	21.1	30.8	33.9	49.5	87.9	73.1	99.2	
CC(=O)c1cc(/C=C/c2ccccc2)cc2cc(-c3ccccc3)[nH]c12	30.8	> 100	93.4	21.2	34.1	52.5	86.5	99	79.8	99.5	
CC(=O)c1cc(-c2ccc(F)cc2)cc2cc(-c3ccc(F)cc3)[nH]c12	13.8	87.4	93.2	9.31	20	47.4	90.6	90	71.6	99.8	
